Consider 6 compounds from patent US20080200682A1, “Process of Producing Bleach Boosters” (BASF Aktiengesellschaft, priority 2005, published 2008).

Assay type in all cases: biochemical
Assay [1] concerns the target T1, Termamyl (amylase enzyme) (Bacillus licheniformis, UniProt P06278).
T1 construct: purchased Novozymes, Denmark

Assay [2] relates to Duramyl (amylase enzyme). In words: Organic Catalyst/Enzyme Compatibility Test (alpha amylase activity assay), Duramyl. Particulars: (Ac/Ab)x100 for Duramyl; [Peracetic Acid]=5.0 ppm; [organic catalyst]=0.5 ppm; detergent solution, 40° C.
Assay [3] has as its system Natalase (amylase enzyme). Put plainly: Organic Catalyst/Enzyme Compatibility Test (alpha amylase activity assay), Natalase. Particulars: (Ac/Ab)x100 for Natalase; [Peracetic Acid]=5.0 ppm; [organic catalyst]=0.5 ppm; detergent solution, 40° C.
The test system of assay [4] is Amylase enzymes: Termamyl, Natalase, and Duramyl. Put plainly: Organic Catalyst/Enzyme Compatibility Test, average ECV of the three enzymes. The settings on record: ECV=(ECVter+ECVdur+ECVnat)/3; [Peracetic Acid]=5.0 ppm; [organic catalyst]=0.5 ppm.

Counter-ions that a name gives are not always drawn.

T1 sequence (P06278 30-512): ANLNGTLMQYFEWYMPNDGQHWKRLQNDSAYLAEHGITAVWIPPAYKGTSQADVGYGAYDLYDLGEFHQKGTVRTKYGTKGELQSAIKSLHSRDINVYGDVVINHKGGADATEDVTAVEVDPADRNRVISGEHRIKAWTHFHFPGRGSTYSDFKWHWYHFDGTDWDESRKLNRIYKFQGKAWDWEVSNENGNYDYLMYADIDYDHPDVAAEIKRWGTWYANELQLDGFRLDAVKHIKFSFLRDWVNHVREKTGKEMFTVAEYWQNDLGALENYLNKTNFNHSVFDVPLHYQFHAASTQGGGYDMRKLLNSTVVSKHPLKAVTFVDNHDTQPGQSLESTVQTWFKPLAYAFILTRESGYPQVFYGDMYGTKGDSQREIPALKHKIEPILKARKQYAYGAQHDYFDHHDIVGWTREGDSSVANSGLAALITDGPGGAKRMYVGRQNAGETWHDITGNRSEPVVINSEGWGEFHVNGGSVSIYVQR

For the compound “Sulfuric acid mono-[2-(3,4-dihydro-isoquinolin-2-yl)-1-(iso-nonyloxymethyl)-ethyl]ester, internal salt [Entry 6]”, in assay [1], the “Enzyme Compatibility Values ECVter” value is listed as 86. Further, the “Enzyme Compatibility Values ECVdur” value in assay [2] turned out to be 96. Moreover, the “Enzyme Compatibility Values ECVnat” value in assay [3] worked out at 88. The “Enzyme Compatibility Values ECV” value in assay [4] worked out at 90.

On to `CCCCCC(CCC)COCC(C[N+]1=Cc2ccccc2CC1)OS(=O)(=O)[O-]` (stereo not drawn) [Entry 3, Sulfuric acid mono-[2-(3,4-dihydro-isoquinolin-2-yl)-1-(2-propylheptyloxymethyl)-ethyl]ester, internal salt], for which, in assay [1], the “Enzyme Compatibility Values ECVter” value is on record as 98. In addition, in assay [2], the “Enzyme Compatibility Values ECVdur” value worked out at 101. In assay [3], the “Enzyme Compatibility Values ECVnat” value is given as 99. For the same compound, the “Enzyme Compatibility Values ECV” value in assay [4] came out at 99.

On to “Sulfuric acid mono-[2-(3,4-dihydro-isoquinolin-2-yl)-1-(iso-decyloxymethyl)-ethyl]ester, internal salt [Entry 7]”, for which, in assay [1], the “Enzyme Compatibility Values ECVter” value is reported as 98. Moreover, the “Enzyme Compatibility Values ECVdur” value in assay [2] is reported as 97. For the same compound, the “Enzyme Compatibility Values ECVnat” value in assay [3] was determined as 96. The “Enzyme Compatibility Values ECV” value in assay [4] was determined as 97.

For `CCCCCCC(CCCC)COCC(C[N+]1=Cc2ccccc2CC1)OS(=O)(=O)[O-]` (stereo not drawn) [Entry 4, Sulfuric acid mono-[2-(3,4-dihydro-isoquinolin-2-yl)-1-(2-butyl-octyloxymethyl)-ethyl]ester, internal salt], the “Enzyme Compatibility Values ECVter” value in assay [1] is recorded as 101. Further, the “Enzyme Compatibility Values ECVdur” value in assay [2] came to 101. In assay [3], the “Enzyme Compatibility Values ECVnat” value is on record as 102. Also, the “Enzyme Compatibility Values ECV” value in assay [4] is 101.

For “Sulfuric acid mono-[2-(3,4-dihydro-isoquinolin-2-yl)-1-(iso-tridecyloxymethyl)-ethyl]ester, internal salt [Entry 8]”, the “Enzyme Compatibility Values ECVter” value in assay [1] came out at 99. Also, the “Enzyme Compatibility Values ECVdur” value in assay [2] was found to be 100. Moreover, in assay [3], the “Enzyme Compatibility Values ECVnat” value turned out to be 101. Moreover, the “Enzyme Compatibility Values ECV” value in assay [4] amounted to 100.

Consider `CCCCC(CC)COCC(C[N+]1=Cc2ccccc2CC1)OS(=O)(=O)[O-]` (stereo not drawn) [Entry 2, reference compound], for which, in assay [1], the “Enzyme Compatibility Values ECVter” value is 54. For the same compound, the “Enzyme Compatibility Values ECVdur” value in assay [2] was determined as 90. Moreover, in assay [3], the “Enzyme Compatibility Values ECVnat” value was 57. Further, in assay [4], the “Enzyme Compatibility Values ECV” value is 67.
